Read-outs that look alike come from different tables or passages of the source.
Experiments:
[1] = system: colorectal cancer cell lines (e.g. DLD-1, HCT 116, SW620, HCT-15, HCT-8, RKO); experiment: Cell based assay, cell viability (CellTiter-Glo), colorectal cancer cell lines
Protocol: (§1) Commercially available bladder cancer, prostate cancer, lung cancer, breast cancer, blood cancer, pancreatic cancer, colorectal cancer, brain cancer, neuroblastoma, melanoma, liver cancer, cervical carcinoma, ovarian cancer, renal cancer, and papilloma cell lines were each treated with trypsin-EDTA and cultured, followed by being seeded in each well of a 96 well plate. After 24 hours of treatment at constant temperature, the respective cells were treated with the candidate compound so that a final concentration became 0 to 2 μM. The treated cells were additionally cultured for 72 hours, and cell viability was measured by using an ATP detection method (CellTiter-Glo® Luminescent Cell Viability Assay, Promega).

melanoma cell lines = experiment: Cell based assay, cell viability (CellTiter-Glo), melanoma cell lines; settings: Homo sapiens; LOX-IMVI cell line
Protocol: as §1

[2] = system: ovarian cancer cell lines; experiment: Cell based assay, cell viability (CellTiter-Glo), ovarian cancer cell lines; settings: Homo sapiens; OVCAR-3 cells
Protocol: as §1

[3] = Homo sapiens, DLD-1, 72 hours treatment, read-out: IC50, colorectal cancer cell line DLD-1
[4] = Homo sapiens, HCT 116, 72 hours treatment, read-out: IC50, colorectal cancer cell line HCT 116
[5] = Homo sapiens, HCT-8, 72 hours treatment, read-out: IC50, colorectal cancer cell line HCT-8
[6] = Homo sapiens, HCT-15, 72 hours treatment, read-out: IC50, colorectal cancer cell line HCT-15
[7] = Homo sapiens, HT-29, 72 hours treatment, read-out: IC50, colorectal cancer cell line HT-29
[8] = Homo sapiens, LoVo, 72 hours treatment, read-out: IC50, colorectal cancer cell line LoVo
[9] = Homo sapiens, SW480, 72 hours treatment, read-out: IC50, colorectal cancer cell line SW480
[10] = Homo sapiens, SW-620, SW620, 72 hours treatment, read-out: IC50, colorectal cancer cell line SW620
[11] = RKO, 72 hours treatment, read-out: IC50, colorectal cancer cell line RKO

Compound CC(=O)c1c([S+]([O-])Cc2cccc(I)c2)[nH]c2c(Br)ccc(Cl)c2c1=O (centres unmarked) [Compound 48, 3-acetyl-8-bromo-5-chloro-2-((3-iodobenzyl)sulfinyl)quinolin-4(1H)-one] has an IC50 [1, 3] of 1600 nM, an IC50 [1, 4] of over 2000 nM and an IC50 [1, 5] of over 2000 nM. The IC50 [1, 6] was over 2000 nM, the IC50 [1, 7] was over 10000 nM and the IC50 [1, 8] was over 2000 nM. It also gave an IC50 [1, 9] of over 2000 nM, an IC50 [1, 10] of over 2000 nM and an IC50 [1, 11] of over 2000 nM. The IC50 (melanoma cell lines) was over 2000 nM and the IC50 [2] was over 2000 nM.
CC(=O)c1c(SCc2ccccc2)nc2c(Br)ccc(Cl)c2c1O [Compound 52, 1-(2-(benzylthio)-8-bromo-5-chloro-4-hydroxyquinolin-3-yl)ethan-1-one] was tested, and the IC50 [1, 3] was over 2000 nM, the IC50 [1, 4] was over 2000 nM and the IC50 [1, 5] was over 2000 nM. For the same compound, the IC50 [1, 6] was over 2000 nM, the IC50 [1, 7] was over 10000 nM and the IC50 [1, 8] was over 2000 nM. The IC50 [1, 9] was over 2000 nM, the IC50 [1, 10] was over 2000 nM and the IC50 [1, 11] was over 2000 nM. The IC50 (melanoma cell lines) was over 2000 nM and the IC50 [2] was over 2000 nM.
In the case of CC(=O)c1c([S+]([O-])Cc2ccccc2)nc2c(Br)ccc(Cl)c2c1O (centres unmarked) [Compound 53, 1-(2-(benzylsulfinyl)-8-bromo-5-chloro-4-hydroxyquinolin-3-yl)ethan-1-one], the IC50 [1, 3] is reported as over 2000 nM, the IC50 [1, 4] is reported as over 2000 nM and the IC50 [1, 5] is reported as over 2000 nM. The IC50 [1, 6] was over 2000 nM, the IC50 [1, 7] was over 10000 nM and the IC50 [1, 8] was over 2000 nM. It also gave an IC50 [1, 9] of over 2000 nM, an IC50 [1, 10] of over 2000 nM and an IC50 [1, 11] of over 2000 nM. The IC50 (melanoma cell lines) was over 2000 nM and the IC50 [2] was over 2000 nM.
In the case of CC(=O)c1c(S(=O)(=O)Cc2ccccc2)nc2c(Br)ccc(Cl)c2c1O [Compound 54, 1-(2-(benzylsulfonyl)-8-bromo-5-chloro-4-hydroxyquinolin-3-yl)ethan-1-one], the IC50 [1, 3] is reported as over 2000 nM, the IC50 [1, 4] is reported as over 2000 nM and the IC50 [1, 5] is reported as over 2000 nM. It also gave an IC50 [1, 6] of over 2000 nM, an IC50 [1, 7] of over 10000 nM and an IC50 [1, 8] of over 2000 nM. It also gave an IC50 [1, 9] of over 2000 nM, an IC50 [1, 10] of over 2000 nM and an IC50 [1, 11] of over 2000 nM. For the same compound, the IC50 (melanoma cell lines) was over 2000 nM and the IC50 [2] was over 2000 nM.
CC(=O)c1c([S+]([O-])Cc2ccccc2C#N)[nH]c2c(Br)ccc(Cl)c2c1=O (centres unmarked) [Compound 58, 2-(((3-acetyl-8-bromo-5-chloro-4-oxo-1,4-dihydroquinolin-2-yl)sulfinyl)methyl)benzonitrile] gave an IC50 [1, 3] of 770 nM, an IC50 [1, 4] of 1090 nM and an IC50 [1, 5] of 1350 nM. It also gave an IC50 [1, 6] of 1100 nM, an IC50 [1, 7] of over 10000 nM and an IC50 [1, 8] of 2020 nM. It also gave an IC50 [1, 9] of 1220 nM, an IC50 [1, 10] of 1160 nM and an IC50 [1, 11] of 1120 nM. The IC50 (melanoma cell lines) was 880 nM and the IC50 [2] was 700 nM.
COCSc1[nH]c2c(Br)ccc(Cl)c2c(=O)c1C(C)=O [Compound 61, 3-acetyl-8-bromo-5-chloro-2-((methoxymethyl)thio)quinolin-4(1H)-one] showed an IC50 [1, 3] of over 2000 nM, an IC50 [1, 4] of over 2000 nM and an IC50 [1, 5] of over 2000 nM. For the same compound, the IC50 [1, 6] was over 2000 nM, the IC50 [1, 7] was over 10000 nM and the IC50 [1, 8] was over 2000 nM. It also gave an IC50 [1, 9] of over 2000 nM, an IC50 [1, 10] of over 2000 nM and an IC50 [1, 11] of over 2000 nM. It also gave an IC50 (melanoma cell lines) of over 2000 nM and an IC50 [2] of over 2000 nM.
CC(=O)c1c(S)[nH]c2c(Br)ccc(Cl)c2c1=O [Compound 62, 3-acetyl-8-bromo-5-chloro-2-mercaptoquinolin-4(1H)-one] was tested, and the IC50 [1, 3] was over 2000 nM, the IC50 [1, 4] was over 2000 nM and the IC50 [1, 5] was over 2000 nM. For the same compound, the IC50 [1, 6] was over 2000 nM, the IC50 [1, 7] was over 10000 nM and the IC50 [1, 8] was over 2000 nM. The IC50 [1, 9] was over 2000 nM, the IC50 [1, 10] was over 2000 nM and the IC50 [1, 11] was over 2000 nM. For the same compound, the IC50 (melanoma cell lines) was over 2000 nM and the IC50 [2] was over 2000 nM.
Work on CC(=O)c1c([S+]([O-])Cc2ccc(C(=O)c3ccccc3)cc2)[nH]c2c(Br)ccc(Cl)c2c1=O (centres unmarked) [Compound 63, 3-acetyl-2-((4-benzoylbenzyl)sulfinyl)-8-bromo-5-chloroquinolin-4(1H)-one] yielded an IC50 [1, 3] of over 2000 nM, an IC50 [1, 4] of over 2000 nM and an IC50 [1, 5] of over 2000 nM. For the same compound, the IC50 [1, 6] was over 2000 nM, the IC50 [1, 7] was over 10000 nM and the IC50 [1, 8] was over 2000 nM. The IC50 [1, 9] was over 2000 nM, the IC50 [1, 10] was over 2000 nM and the IC50 [1, 11] was over 2000 nM. For the same compound, the IC50 (melanoma cell lines) was over 2000 nM and the IC50 [2] was over 2000 nM.
CC(=O)c1c([S+]([O-])CC#N)[nH]c2c(Br)ccc(Cl)c2c1=O (centres unmarked) [Compound 65, 2-((3-acetyl-8-bromo-5-chloro-4-oxo-1,4-dihydroquinolin-2-yl)sulfinyl)acetonitrile] showed an IC50 [1, 3] of over 2000 nM, an IC50 [1, 4] of over 2000 nM and an IC50 [1, 5] of over 2000 nM. For the same compound, the IC50 [1, 6] was over 2000 nM, the IC50 [1, 7] was over 10000 nM and the IC50 [1, 8] was over 2000 nM. It also gave an IC50 [1, 9] of over 2000 nM, an IC50 [1, 10] of over 2000 nM and an IC50 [1, 11] of over 2000 nM. The IC50 (melanoma cell lines) was over 2000 nM and the IC50 [2] was over 2000 nM.
CC(=O)c1c(SCC#N)[nH]c2c(Br)ccc(Cl)c2c1=O [Compound 66, 2-((3-acetyl-8-bromo-5-chloro-4-oxo-1,4-dihydroquinolin-2-yl)thio)acetonitrile] showed an IC50 [1, 3] of over 2000 nM, an IC50 [1, 4] of over 2000 nM and an IC50 [1, 5] of over 2000 nM. It also gave an IC50 [1, 6] of over 2000 nM, an IC50 [1, 7] of over 10000 nM and an IC50 [1, 8] of over 2000 nM. For the same compound, the IC50 [1, 9] was over 2000 nM, the IC50 [1, 10] was over 2000 nM and the IC50 [1, 11] was over 2000 nM. The IC50 (melanoma cell lines) was over 2000 nM and the IC50 [2] was over 2000 nM.
